Data from ChEMBL document CHEMBL1145388, “Pyridazinoquinolinetriones as NMDA glycine-site antagonists with oral antinociceptive activity in a model of neuropathic pain” (J Med Chem, 2007).

Tests used:
in vivo = details: Sprague-Dawley, rat, po, 10 mg/kg
physchem = details: octanol/water, pH 7.4

For CS(=O)(=O)O.O=c1c2ccc(Cl)cc2[nH]c2c(O)nn(Cc3ccncc3)c(=O)c12, the bioavailability at 24 h (in vivo) was 5% and the logD (physchem) was under 0.3.

For CS(=O)(=O)O.O=c1c2ccc(Cl)cc2[nH]c2c(O)nn(Cc3cnccn3)c(=O)c12, the bioavailability at 24 h (in vivo) was 37% and the logD (physchem) was under 0.5.

O=c1[nH]n(Cc2nccs2)c(=O)c2c(=O)c3ccc(Cl)cc3[nH]c12 showed a logD (physchem) of under 0.5.

O=c1[nH]n(CC#Cc2ccccc2)c(=O)c2c(=O)c3ccc(Cl)cc3[nH]c12 showed a bioavailability at 24 h (in vivo) of 16%.

C#CC(C)n1[nH]c(=O)c2[nH]c3cc(Cl)ccc3c(=O)c2c1=O (stereo not drawn) gave a logD (physchem) of under 0.5.

O=c1c2ccc(Cl)cc2[nH]c2c(O)nn(Cc3cc4ccccc4o3)c(=O)c12 gave a bioavailability at 24 h (in vivo) of 25% and a logD (physchem) of 2.1.

In the case of CC(c1cc2ccccc2o1)n1[nH]c(=O)c2[nH]c3cc(Cl)ccc3c(=O)c2c1=O (stereo not drawn), the logD (physchem) is reported as 2.

Cc1ccc(Cn2nc(O)c3[nH]c4cc(Cl)ccc4c(=O)c3c2=O)o1 showed a logD (physchem) of under 0.5.

For O=c1c2ccc(Cl)cc2[nH]c2c(O)nn(Cc3ccsc3)c(=O)c12, the bioavailability at 24 h (in vivo) was 1.2% and the logD (physchem) was 1.2.

With CC(c1ccsc1)n1[nH]c(=O)c2[nH]c3cc(Cl)ccc3c(=O)c2c1=O (stereo not drawn) the logD (physchem) was 0.9.

With Cc1ccsc1Cn1[nH]c(=O)c2[nH]c3cc(Cl)ccc3c(=O)c2c1=O the bioavailability at 24 h (in vivo) was 28% and the logD (physchem) was 1.4.

COC(=O)c1ccc(Cn2nc(O)c3[nH]c4cc(Cl)ccc4c(=O)c3c2=O)cc1 gave a bioavailability at 24 h (in vivo) of 7% and a logD (physchem) of 1.17.

COC(=O)c1ccc(C(C)n2[nH]c(=O)c3[nH]c4cc(Cl)ccc4c(=O)c3c2=O)cc1 (stereo not drawn) gave a logD (physchem) of 1.3.

Work on O=C(O)c1ccc(Cn2[nH]c(=O)c3[nH]c4cc(Cl)ccc4c(=O)c3c2=O)cc1 yielded a logD (physchem) of under 0.5.

Work on CC(C#Cc1ccsc1)n1[nH]c(=O)c2[nH]c3cc(Cl)ccc3c(=O)c2c1=O (stereo not drawn) yielded a logD (physchem) of 1.9.

With CC(C#Cc1cccs1)n1[nH]c(=O)c2[nH]c3cc(Cl)ccc3c(=O)c2c1=O (stereo not drawn) the logD (physchem) was 2.4.

For COCCNC(=O)c1cccc(Cn2[nH]c(=O)c3[nH]c4cc(Cl)ccc4c(=O)c3c2=O)c1, the logD (physchem) was 1.2.

Work on CN(C)C(=O)Nc1ccc(Cn2[nH]c(=O)c3[nH]c4cc(Cl)ccc4c(=O)c3c2=O)cc1 yielded a bioavailability at 24 h (in vivo) of under 1% and a logD (physchem) of 1.1.

For CC(C#Cc1ccccc1)n1[nH]c(=O)c2[nH]c3cc(Cl)ccc3c(=O)c2c1=O (stereo not drawn), the logD (physchem) was 1.4.

With Cc1cc(Cn2[nH]c(=O)c3[nH]c4cc(Cl)ccc4c(=O)c3c2=O)oc1C the logD (physchem) was 1.

O=c1[nH]n(Cc2cc3ccccc3s2)c(=O)c2c(=O)c3ccc(Cl)cc3[nH]c12 gave a bioavailability at 24 h (in vivo) of 12%.

O=c1[nH]n(Cc2ccno2)c(=O)c2c(=O)c3ccc(Cl)cc3[nH]c12 showed a bioavailability at 24 h (in vivo) of 40% and a logD (physchem) of under 0.5.

Molecule CCC(c1ccncc1)n1[nH]c(=O)c2[nH]c3cc(Cl)ccc3c(=O)c2c1=O (racemic) has a logD (physchem) of 0.6.

CC(c1ccncc1)n1[nH]c(=O)c2[nH]c3cc(Cl)ccc3c(=O)c2c1=O.CS(=O)(=O)O (racemic) showed a bioavailability at 24 h (in vivo) of 30% and a logD (physchem) of under 0.3.
